One assay concerns the target T1, Sirt2 (Homo sapiens, UniProt Q8IXJ6).
T1 construct: made in house
T1 sequence (Q8IXJ6 1-389): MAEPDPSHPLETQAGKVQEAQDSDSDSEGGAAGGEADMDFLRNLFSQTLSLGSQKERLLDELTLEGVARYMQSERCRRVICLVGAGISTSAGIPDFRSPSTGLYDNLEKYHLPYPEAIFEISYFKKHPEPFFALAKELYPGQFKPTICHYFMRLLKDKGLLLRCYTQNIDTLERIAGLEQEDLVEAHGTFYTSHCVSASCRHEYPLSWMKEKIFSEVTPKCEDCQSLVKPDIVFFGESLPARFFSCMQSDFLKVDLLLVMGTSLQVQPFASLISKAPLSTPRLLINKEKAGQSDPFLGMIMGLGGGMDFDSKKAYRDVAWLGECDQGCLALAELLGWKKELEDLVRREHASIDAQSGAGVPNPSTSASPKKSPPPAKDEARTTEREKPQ
The experiment in a line: Ki determination with substrate 3, 96-well MTP fluorescence reader. The class given is biochemical. Here is the method: The microtiter plate fluorescence measurements were performed on a Tecan Infinite M200 microplate reader (Maennedorf, Switzerland) at λEx = 320 nm and λEm = 408 nm (lag time 9 μs, integration time […], gain 160, 170 or 182). The reactions (total volume 100 μl) were measured in black low-binding 96-well microtiter plates (NUNC). Assay-buffer, 500 μM NAD^+ and 0.07–200 μM peptide substrate were pre-incubated at 37 °C for 5 min. The reaction was started by adding human sirtuin (0.01–0.5 μM). The signals were converted into product concentration via calibration lines and the resulting data were evaluated as described above (single fluorescence measurement). The determination for the kinetic constants of NAD^+ was performed in the same way, except that the peptide concentration was fixed (5, 25 or 200 μM) and the NAD^+ concentration was varied (10–1500 μM). All measurements were done in duplicates. The reaction mixture for the calibration lines was prepared as described for the single fluorescence measurements. […] The resulting plots were analyzed by a competitive inhibition and non-competitive inhibition model using the program Sigma Plot 8. The linear regression of the apparent KM-values against the corresponding inhibitor concentration yielded the inhibitor constant Ki for competitive inhibition. The Ki for non-competitive inhibition was determined by linear regression of 1/apparent Vmax against the corresponding inhibitor concentration. The negative Ki value can be determined as intersection with the X-axis from these plots.
Supplementary Figure S15. Kinetic characteristics for sirtuin inhibitor 8. The reactions were performed with 0.01 µM Sirt2 /0.1 µM Sirt3 /0.5 µM Sirt6 and 500 µM NAD^+ and varying concentrations of 3 (0.07-100 µM). […] The negative Ki value can be determined as intersection with the X-axis from the Vmax^app-1/I plot.
Supplementary Figure S16. […] The negative Ki value can be determined as intersection with the X-axis from the Vmax^app-1/I plot.
Supplementary Figure S17. […] The negative Ki value can be determined as intersection with the X-axis from the Vmax^app-1/I plot.

In assay [1] the target is T2, Sirt6 (Homo sapiens, UniProt Q8N6T7).
T2 construct: His-tag; made in house; host or cells: E. coli BL21 DE3
The description is as above. The assay is classed as biochemical. The conditions noted are these: for type of inhibition with respect to the peptide substrate: Sirt6, substrate 3. Here is the method:
All measurements were done in duplicates.
Supplementary Figure S13. […] Data are presented as mean ± s.d. (n=2) and lines represent the Michaelis-Menten-plot (left) and secondary plots (right). The apparent KM or Vmax^app-1 values from v/[S] characteristics were plotted against the corresponding inhibitor concentration.
Supplementary Figure S14. […] The reactions were performed with 0.5 µM Sirt6 and either 500 µM NAD^+ and varying concentrations of 3 (2-100 µM). […] Data are presented as mean ± s.d. (n=2) and lines represent the Michaelis-Menten-plot (left) and secondary plots (right). The apparent Vmax^app-1 values from v/[S] characteristics were plotted against the corresponding inhibitor concentration.
Supplementary Figure S15. Kinetic characteristics for sirtuin inhibitor 8. The reactions were performed with 0.01 µM Sirt2 /0.1 µM Sirt3 /0.5 µM Sirt6 and 500 µM NAD^+ and varying concentrations of 3 (0.07-100 µM). […] Data are presented as mean ± s.d. (n=2) and lines represent the Michaelis-Menten-plot (left) and secondary plots (right). The apparent Vmax^app-1 values from v/[S] characteristics were plotted against the corresponding inhibitor concentration.

Assay [2] relates to Sirt6. More on the design: method as in PMID 25004411. The conditions noted are these: cited from earlier work; for inhibition of enzymatic activity: 200 μM concentration.
The target of assay [3] is T2, Sirt6. Put plainly: Isomer specific inhibition by thioxo peptides, HPLC. The assay is classed as biochemical. The conditions noted are these: substrate 2a. Here is the method:
After 30 min incubation at 20 °C reaction was stopped using 10% TFA solution. Inhibitor solutions were irradiated at 254 nm for 5 min. Separated isomers were applied in concentrations from 1 to 10 μM. The influence of cis content on sirtuin inhibition using fluorescence spectrometer was determined with 500 μM NAD^+, 5 μM 3, 0.1 μM Sirt2 and 0.1 μM 9. Reactions were done at 20 °C with 9 in GS and PSS (after 5 min irradiation at 254 nm). 9 in PSS was applied immediately after irradiation (transfer time ~5 s) and started directly by adding sirtuin. Reactions were measured within 1 min to avoid re-isomerization.
Supplementary Figure S36. Determination of IC50 value of 8 for Sirt6 in GS (?) and PSS (π). Data were fitted with U(%) = Umin(%) + (Umax(%) – Umin(%))/(1+10^(x-logIC50)) with U(%) percental turmover of substrate 2a; Umin(%) lowest turnover of substrate; Umax(%) maximal turnover of substrate (n=3).
Supplementary Figure S37. Inhibition of Sirt6 by 8 (?) and 9 (π).Data were fitted with U(%) = Umin(%) + (Umax(%) – Umin(%))/(1+10^(x-logIC50)) with U(%) percental turmover of substrate; Umin(%) lowest turnover of substrate 2a; Umax(%) maximal turnover of substrate (n=3).
Supplementary Figure S38. Determination of IC50 of 9 for Sirt6 with 72.4 % cis- (π) and 70.3 % (?) trans-content. Measurements were done with 10 µM peptide substrate (big figure) or 30 µM (small figure). Data were fitted with U(%) = Umin(%) + (Umax(%) – Umin(%))/(1+10^(x-logIC50)) with U(%) percental turmover of substrate 2a; Umin(%) lowest turnover of substrate; Umax(%) maximal turnover of substrate (n=3).

Another assay concerns the target T3, Sirt1 (Homo sapiens, UniProt Q96EB6).
T3 construct: made in house
T3 sequence (Q96EB6 1-747): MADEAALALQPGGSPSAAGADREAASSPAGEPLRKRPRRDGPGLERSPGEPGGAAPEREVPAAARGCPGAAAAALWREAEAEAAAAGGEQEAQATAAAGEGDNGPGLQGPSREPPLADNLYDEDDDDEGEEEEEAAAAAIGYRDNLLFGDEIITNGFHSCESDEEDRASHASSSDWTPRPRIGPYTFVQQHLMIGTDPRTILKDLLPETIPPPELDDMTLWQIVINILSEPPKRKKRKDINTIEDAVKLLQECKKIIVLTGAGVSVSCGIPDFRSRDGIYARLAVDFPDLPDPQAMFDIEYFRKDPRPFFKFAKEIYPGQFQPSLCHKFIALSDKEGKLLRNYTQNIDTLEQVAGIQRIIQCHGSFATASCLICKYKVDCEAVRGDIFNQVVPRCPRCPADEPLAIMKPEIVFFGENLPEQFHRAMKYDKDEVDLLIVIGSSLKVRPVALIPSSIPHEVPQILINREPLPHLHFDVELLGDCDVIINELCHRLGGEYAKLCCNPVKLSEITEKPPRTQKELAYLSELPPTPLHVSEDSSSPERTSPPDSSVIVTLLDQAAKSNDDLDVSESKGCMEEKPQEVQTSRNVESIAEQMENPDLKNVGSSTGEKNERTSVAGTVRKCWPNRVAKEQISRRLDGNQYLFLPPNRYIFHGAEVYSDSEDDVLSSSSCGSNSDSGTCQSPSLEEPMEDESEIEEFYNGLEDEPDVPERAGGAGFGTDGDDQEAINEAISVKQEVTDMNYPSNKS
Put plainly: HPLC based activity assay, influence of resveratrol on Sirt1 mediated deacylation of 3. The assay is classed as biochemical. The conditions noted are these: 0-100 µM resveratrol; Sirt1 0.5 µM, 3 20 µM, NAD+ 500 µM, 60 minutes at 37°C. Here is the method:
For the determination of kinetic constants for all sirtuin mediated reactions solutions containing 20 mM TRIS/HCl pH 7.8, 150 mM NaCl, 5 mM MgCl2 (assay-buffer), 500 μM NAD^+ and varying substrate concentrations (0.5–100 μM) were used. Deacylation was started by adding human sirtuin to reach a final concentration of 0.01–0.5 μM. Enzyme-catalyzed reaction was stopped using TFA (1% final concentration) after 1 min to 180 min of incubation at 37 °C depending on substrate reactivity. The cleavage rate of the different TNFα peptide derivatives was analyzed using analytical reversed phase HPLC. 40 to 80 μl of compounds or reaction solutions were injected and separated using a linear gradient from 5% to 95% solvent B within 6min. The product and substrate peaks were quantified using absorbance at 220 nm or 365 nm (absorption of 3-Nitrotyrosyl moiety). The peak areas were integrated and converted to initial velocity rates calculated from the ratio of product area to total peak area. Linear regression of conversions plotted against time yielded reaction rates in μM/min (relative conversion below 20% of substrate). […]
Supplementary Figure S4. […] Reaction was stopped using TFA (1% final concentration) and the consumption of 3 was analyzed using HPLC. […]

Structures are written as SMILES. Counter-ions that a name gives are not always drawn. Like-named read-outs stand apart in the source and are kept apart here. Starred links: 1 amine or outer side, 2 acyl side, 3 side chain; linkers in the order of their positions; H or OH if unused. Positions of bridges follow the written chain, without caps; N, C: chain ends. Non-standard residues stand in square brackets, D forms with d. Residues, ends and D or L forms follow the SMILES beside them. *: point of attachment. X1 = CCCCCCCCCCCCCC(=S)N(C)CCCC[C@H](N[*:1])C(=O)[*:2]; Tfa = O=C(C(F)(F)F)*

T2 sequence (Q8N6T7 whole entry): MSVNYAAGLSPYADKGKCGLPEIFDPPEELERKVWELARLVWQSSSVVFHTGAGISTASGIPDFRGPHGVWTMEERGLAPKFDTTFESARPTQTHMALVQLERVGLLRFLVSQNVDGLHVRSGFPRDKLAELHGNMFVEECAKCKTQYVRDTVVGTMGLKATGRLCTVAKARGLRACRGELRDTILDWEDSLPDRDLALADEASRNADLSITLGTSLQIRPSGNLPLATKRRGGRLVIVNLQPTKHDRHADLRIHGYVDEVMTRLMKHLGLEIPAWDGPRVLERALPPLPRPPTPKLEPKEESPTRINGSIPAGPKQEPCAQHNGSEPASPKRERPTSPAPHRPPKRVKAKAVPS

`CC(C)[C@@H]1NC(=O)[C@H](Cc2c[nH]cn2)NC(=O)[C@H](Cc2ccc(O)cc2)NC(=O)[C@H]([C@@H](C)O)NC(=O)[C@H](Cc2c[nH]cn2)NC(=O)[C@H](Cc2ccc(O)cc2)NC(=O)CSC[C@@H](C(N)=O)NC(=O)[C@H](Cc2ccc(O)cc2)NC(=O)[C@H](Cc2ccc(O)cc2)NC(=O)[C@H](CC(N)=O)NC(=O)[C@H]([C@@H](C)O)NC(=O)[C@H](CCCNC(=N)N)NC(=O)[C@H](CCCNC(=N)N)NC(=O)[C@H](CCCCNC(=O)C(F)(F)F)NC1=O` [S2iL5] ({CH2CO}-YHTYHVK(Tfa)RRTNYYC-NH2; thioether N-14): the Ki on Sirt2 (Sirt2 0.01 µM, varying substrate 3, 500 µM NAD+, read-out: Ki (3)) was 0.6 ± 0.2 µM; on Sirt2 (Sirt2, substrate 3, read-out: Ki-value), 0.56 µM.

For `NC(=O)C1CCCc2c1[nH]c1ccc(Cl)cc21` (centres unmarked) [Ex-527], the affinity on Sirt6 [1] (Sirt6 0.5 µM, varying substrate 3, 500 µM NAD+ (saturating)), expressed as Ki, was 100 ± 11 µM. The “type of inhibition with respect to the peptide substrate” value at Sirt6 [1] is reported as “non-competitive”. In the assay on Sirt6 [2], the “inhibition of enzymatic activity” value is 56%.

For the compound `O=c1c(O)c(-c2ccc(O)c(O)c2)oc2cc(O)cc(O)c12` [Quercetin], the “type of inhibition with respect to the peptide substrate” value on Sirt6 [1] is “non-competitive”. Also, the “inhibition of enzymatic activity” value in the assay with Sirt6 [2] was 52%.

Regarding `CCCCCCCCCCCCCC(=S)N(C)CCCC[C@H](NC(=O)[C@H](CCCCN)NC(=O)[C@@H]1CCCN1C(=O)[C@H](CC(C)C)NC(=O)[C@H](C)NC(=O)[C@H](CCC(=O)O)NC(C)=O)C(=O)N[C@H](C(=O)NCC(=O)NCC(N)=O)[C@@H](C)O` [compound 9] (Ac-EALPK[X1]TGG-NH2), the IC50 at Sirt6 [3] (inhibitor with 29.7% cis isomer (HPLC-separated)) came to 1.7 ± 0.5 µM; at Sirt6 [3] (inhibitor with 72.4% cis isomer (HPLC-separated)) it was 0.6 ± 0.1 µM.

For the compound `Oc1ccc(/C=C/c2cc(O)cc(O)c2)cc1` [resveratrol], the “influence on Sirt1 mediated deacylation of 3” value at Sirt1 is given as “no significant influence”.

On to `NC(=O)c1cccnc1` [NAM, nicotinamide], for which the IC50 with Sirt6 [2] is […].

These data come from article PMC4778124, “A continuous sirtuin activity assay without any coupling to enzymatic or chemical reactions” (Scientific Reports, 2016).
